# “And” between values parts separate entries of the source, which are not always exact repeats. Identical values can stand only once.
# Legend:
# PC-3 tumor = assay: SPECT/CT, PC-3 tumor in mouse transplanted with LNCaP and PC-3; assay type: in vivo; conditions: 24 (and 48) hours after administration
# Method: LNCaP cells (1.0×10^7 cells/mouse) were suspended in a mixture of PBS and Matrigel (1:1, 150 μL) and subcutaneously transplanted to the right shoulder of a male CB17/IcrJcl-Prkdc^scid mouse kept in the same manner as in Example 1-1 under isoflurane anesthesia. In addition, a suspension of PC-3 cells (1.0×10^7 cells/mouse) in a mixture of PBS and Matrigel (1:1, 150 μL) was subcutaneously transplanted into the left shoulder of the same mouse under isoflurane anesthesia. Thereafter, the mouse was kept for 40 to 60 days. In this way, a tumor-transplanted mouse in which LNCaP cells and PC-3 cells were simultaneously transplanted into one mouse was obtained. The tumor-transplanted mouse was then administered saline solution (2.7 MBq, 100 μL) of [^111In]In-PtDA from the tail vein. SPECT/CT was performed 24 and 48 hours after administration with FX3300 pre-clinical imaging system, which is manufactured by Gamma Medica-Ideas. Imaging was performed using a pinhole collimator with a diameter of 1.0 mm at a rotation radius of 35 mm, a projection time of 70 seconds, and the number of projections of 32 times under isoflurane anesthesia. After SPECT, CT (Tube voltage: 60 kV, Tube current: 350 μA) was performed. Image reconstruction was performed on the projection data of SPECT through three-dimensional ordered subset expectation maximization method (8 subsets, 5 iterations). […]
# [1] = tested on: LNCaP tumor-transplanted mouse; assay: Internal radioactivity distribution using LNCaP tumor-transplanted mouse; assay type: in vivo
# Method in brief: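 Male SCID mice bearing subcutaneous LNCaP or PC-3 xenografts (40–60 days) received the 111In-labelled compound i.v. via tail vein (185–259 kBq in saline; n=2–3). Blood and organs collected at 1 to 192 hours post-dose, weighed and counted. Uptake expressed as %ID/g.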
smiles,measurement,setting,value
O=C([O-])CN(Cc1cccc(C(=O)[O-])n1)C[C@H](Cc1ccc(NC(=O)[C@H](CCCCNC(=O)CCC(=O)NCCCC[C@H](NC(=O)N[C@@H](CCC(=O)O)C(=O)O)C(=O)O)NC(=O)CCCc2ccc(I)cc2)cc1)N(CC(=O)[O-])Cc1cccc(C(=O)[O-])n1.[111In+3] [[^111In]In-Octapa-2],radioactivity signal in the PC-3 tumor in SPECT/CT,PC-3 tumor,hardly observed
same,Blood,[1]; 1 h after administration,14.4 ± 1.81 % ID/g
same,Brain,[1]; 1 h after administration,0.20 ± 0.03 % ID/g
same,Heart,[1]; 1 h after administration,3.98 ± 0.51 % ID/g
same,Intestine,[1]; 1 h after administration,1.55 ± 0.21 % ID/g
same,Kidney,[1]; 1 h after administration,121 ± 14.9 % ID/g
same,LNCaP Tumor,[1]; 1 h after administration,12.5 ± 0.26 % ID/g
same,Liver,[1]; 1 h after administration,2.75 ± 0.54 % ID/g
same,Lung,[1]; 1 h after administration,10.1 ± 1.34 % ID/g
same,Muscle,[1]; 1 h after administration,1.44 ± 0.24 % ID/g
same,Pancreas,[1]; 1 h after administration,1.73 ± 0.18 % ID/g
same,Spleen,[1]; 1 h after administration,18.5 ± 4.39 % ID/g
same,Stomach (% ID),[1]; 1 h after administration,0.51 ± 0.22 % ID
same,Blood,[1]; 4 h after administration,6.73 ± 1.63 % ID/g
same,Brain,[1]; 4 h after administration,0.14 ± 0.02 % ID/g
same,Heart,[1]; 4 h after administration,1.89 ± 0.49 % ID/g
same,Intestine,[1]; 4 h after administration,1.65 ± 0.37 % ID/g
same,Kidney,[1]; 4 h after administration,177 ± 35.7 % ID/g
same,LNCaP Tumor,[1]; 4 h after administration,13.7 ± 3.24 % ID/g
same,Liver,[1]; 4 h after administration,1.67 ± 0.47 % ID/g
same,Lung,[1]; 4 h after administration,5.02 ± 0.89 % ID/g
same,Muscle,[1]; 4 h after administration,0.63 ± 0.19 % ID/g
same,Pancreas,[1]; 4 h after administration,1.59 ± 0.94 % ID/g
same,Spleen,[1]; 4 h after administration,13.2 ± 2.66 % ID/g
same,Stomach (% ID),[1]; 4 h after administration,0.23 ± 0.02 % ID
same,Blood,[1]; 24 h after administration,0.84 ± 0.27 % ID/g
same,Brain,[1]; 24 h after administration,0.03 ± 0.01 % ID/g
same,Heart,[1]; 24 h after administration,0.33 ± 0.05 % ID/g
same,Intestine,[1]; 24 h after administration,0.82 ± 0.68 % ID/g
same,Kidney,[1]; 24 h after administration,55.3 ± 19.3 % ID/g
same,LNCaP Tumor,[1]; 24 h after administration,8.64 ± 2.27 % ID/g
same,Liver,[1]; 24 h after administration,0.33 ± 0.02 % ID/g
same,Lung,[1]; 24 h after administration,0.74 ± 0.12 % ID/g
same,Muscle,[1]; 24 h after administration,0.07 ± 0.02 % ID/g
same,Pancreas,[1]; 24 h after administration,0.19 ± 0.05 % ID/g
same,Spleen,[1]; 24 h after administration,1.97 ± 0.90 % ID/g
same,Stomach (% ID),[1]; 24 h after administration,0.21 ± 0.15 % ID
same,Blood,[1]; 48 h after administration,0.26 ± 0.23 % ID/g
same,Brain,[1]; 48 h after administration,0.02 ± 0.01 % ID/g
same,Heart,[1]; 48 h after administration,0.18 ± 0.12 % ID/g
same,Intestine,[1]; 48 h after administration,0.68 ± 0.32 % ID/g
same,Kidney,[1]; 48 h after administration,22.4 ± 14.5 % ID/g
same,LNCaP Tumor,[1]; 48 h after administration,8.10 ± 2.67 % ID/g
same,Liver,[1]; 48 h after administration,0.32 ± 0.10 % ID/g
same,Lung,[1]; 48 h after administration,0.45 ± 0.18 % ID/g
same,Muscle,[1]; 48 h after administration,0.04 ± 0.05 % ID/g
same,Pancreas,[1]; 48 h after administration,0.13 ± 0.06 % ID/g
same,Spleen,[1]; 48 h after administration,1.13 ± 0.70 % ID/g
same,Stomach (% ID),[1]; 48 h after administration,0.16 ± 0.14 % ID
same,Blood,[1]; 96 h after administration,0.01 ± 0.01 % ID/g
same,Brain,[1]; 96 h after administration,0.01 ± 0.00 % ID/g
same,Heart,[1]; 96 h after administration,0.07 ± 0.02 % ID/g
same,Intestine,[1]; 96 h after administration,0.45 ± 0.29 % ID/g
same,Kidney,[1]; 96 h after administration,3.27 ± 0.26 % ID/g
same,LNCaP Tumor,[1]; 96 h after administration,4.48 ± 0.78 % ID/g
same,Liver,[1]; 96 h after administration,0.22 ± 0.01 % ID/g
same,Lung,[1]; 96 h after administration,0.14 ± 0.08 % ID/g
same,Muscle,[1]; 96 h after administration,0.05 ± 0.02 % ID/g
same,Pancreas,[1]; 96 h after administration,0.06 ± 0.02 % ID/g
same,Spleen,[1]; 96 h after administration,0.61 ± 0.04 % ID/g
same,Stomach (% ID),[1]; 96 h after administration,0.04 ± 0.02 % ID
same,Blood,[1]; 192 h after administration,0.01 ± 0.01 % ID/g
same,Brain,[1]; 192 h after administration,0.01 ± 0.01 % ID/g
same,Heart,[1]; 192 h after administration,0.06 ± 0.02 % ID/g
same,Intestine,[1]; 192 h after administration,0.27 ± 0.18 % ID/g
same,Kidney,[1]; 192 h after administration,1.76 ± 0.70 % ID/g
same,LNCaP Tumor,[1]; 192 h after administration,1.76 ± 0.45 % ID/g
same,Liver,[1]; 192 h after administration,0.20 ± 0.05 % ID/g
same,Lung,[1]; 192 h after administration,0.07 ± 0.02 % ID/g
same,Muscle,[1]; 192 h after administration,0.01 ± 0.01 % ID/g
same,Pancreas,[1]; 192 h after administration,0.08 ± 0.02 % ID/g
same,Spleen,[1]; 192 h after administration,0.44 ± 0.12 % ID/g
same,Stomach (% ID),[1]; 192 h after administration,0.01 ± 0.01 % ID
"O=C(O)CC[C@H](NC(=O)N[C@@H](CCCCNC(=O)[C@H](Cc1ccc2ccccc2c1)NC(=O)[C@H]1CC[C@H](CNC(=O)CCC(C(=O)O)N2CCN(CC(=O)O)CCN(C(CCC(=O)N[C@@H](CCCCNC(=O)CCCc3ccc(I)cc3)C(=O)O)C(=O)O)CCN(CC(=O)O)CC2)CC1)C(=O)O)C(=O)O (some centres unmarked) [[^111In]In-PSMA-NAT-DA1, metal not drawn]",Blood,[1]; 1 h after administration,39.8 ± 2.91 % ID/g
same,Brain,[1]; 1 h after administration,0.63 ± 0.03 % ID/g
same,Heart,[1]; 1 h after administration,10.8 ± 1.31 % ID/g
same,Intestine,[1]; 1 h after administration,3.40 ± 0.24 % ID/g
same,Kidney,[1]; 1 h after administration,41.5 ± 4.27 % ID/g
same,LNCaP Tumor,[1]; 1 h after administration,23.0 ± 2.20 % ID/g
same,Liver,[1]; 1 h after administration,8.24 ± 2.38 % ID/g
same,Lung,[1]; 1 h after administration,28.1 ± 8.65 % ID/g
same,Muscle,[1]; 1 h after administration,2.82 ± 0.55 % ID/g
same,Pancreas,[1]; 1 h after administration,7.32 ± 1.27 % ID/g
same,Spleen,[1]; 1 h after administration,31.2 ± 2.84 % ID/g
same,Stomach (% ID),[1]; 1 h after administration,0.94 ± 0.35 % ID
same,Blood,[1]; 4 h after administration,38.8 ± 8.25 % ID/g
same,Brain,[1]; 4 h after administration,0.83 ± 0.20 % ID/g
same,Heart,[1]; 4 h after administration,12.2 ± 2.44 % ID/g
same,Intestine,[1]; 4 h after administration,3.47 ± 0.42 % ID/g
same,Kidney,[1]; 4 h after administration,66.2 ± 13.0 % ID/g
same,LNCaP Tumor,[1]; 4 h after administration,43.6 ± 8.49 % ID/g
same,Liver,[1]; 4 h after administration,8.38 ± 2.27 % ID/g
same,Lung,[1]; 4 h after administration,26.5 ± 5.70 % ID/g
same,Muscle,[1]; 4 h after administration,3.69 ± 0.83 % ID/g
same,Pancreas,[1]; 4 h after administration,5.85 ± 1.34 % ID/g
same,Spleen,[1]; 4 h after administration,23.0 ± 3.16 % ID/g
same,Stomach (% ID),[1]; 4 h after administration,1.32 ± 0.19 % ID
same,Blood,[1]; 24 h after administration,10.9 ± 5.55 % ID/g
same,Brain,[1]; 24 h after administration,0.27 ± 0.13 % ID/g
same,Heart,[1]; 24 h after administration,3.14 ± 1.52 % ID/g
same,Intestine,[1]; 24 h after administration,1.26 ± 0.70 % ID/g
same,Kidney,[1]; 24 h after administration,37.1 ± 19.3 % ID/g
same,LNCaP Tumor,[1]; 24 h after administration,51.9 ± 39.3 % ID/g
same,Liver,[1]; 24 h after administration,2.73 ± 1.08 % ID/g
same,Lung,[1]; 24 h after administration,8.76 ± 4.02 % ID/g
same,Muscle,[1]; 24 h after administration,1.23 ± 0.36 % ID/g
same,Spleen,[1]; 24 h after administration,13.5 ± 8.18 % ID/g
same,Stomach (% ID),[1]; 24 h after administration,0.28 ± 0.16 % ID
same,Blood,[1]; 48 h after administration,12.3 % ID/g and 12.3 ± 1.56 % ID/g
same,Brain,[1]; 48 h after administration,0.45 ± 0.03 % ID/g
same,Heart,[1]; 48 h after administration,4.68 ± 0.92 % ID/g
same,Intestine,[1]; 48 h after administration,1.39 ± 0.06 % ID/g
same,Kidney,[1]; 48 h after administration,79.0 ± 6.78 % ID/g
same,LNCaP Tumor,[1]; 48 h after administration,131.6 ± 22.0 % ID/g
same,Liver,[1]; 48 h after administration,4.49 ± 0.71 % ID/g
same,Lung,[1]; 48 h after administration,11.1 ± 2.24 % ID/g
same,Muscle,[1]; 48 h after administration,1.48 ± 0.31 % ID/g
same,Pancreas,[1]; 48 h after administration,2.26 ± 0.15 % ID/g
same,Spleen,[1]; 48 h after administration,17.8 ± 1.05 % ID/g
same,Stomach (% ID),[1]; 48 h after administration,0.44 ± 0.09 % ID
same,Blood,[1]; 96 h after administration,4.07 ± 1.37 % ID/g
same,Brain,[1]; 96 h after administration,0.18 ± 0.04 % ID/g
same,Heart,[1]; 96 h after administration,2.10 ± 0.83 % ID/g
same,Intestine,[1]; 96 h after administration,0.86 ± 0.54 % ID/g
same,Kidney,[1]; 96 h after administration,22.0 ± 14.9 % ID/g
same,LNCaP Tumor,[1]; 96 h after administration,56.2 ± 35.6 % ID/g
same,Liver,[1]; 96 h after administration,2.31 ± 0.89 % ID/g
same,Lung,[1]; 96 h after administration,4.55 ± 2.33 % ID/g
same,Muscle,[1]; 96 h after administration,0.59 ± 0.09 % ID/g
same,Pancreas,[1]; 96 h after administration,2.60 ± 3.18 % ID/g
same,Spleen,[1]; 96 h after administration,6.33 ± 5.25 % ID/g
same,Stomach (% ID),[1]; 96 h after administration,0.19 ± 0.10 % ID
same,Blood,[1]; 192 h after administration,2.47 ± 0.52 % ID/g
same,Heart,[1]; 192 h after administration,1.19 ± 0.24 % ID/g
same,Intestine,[1]; 192 h after administration,0.55 ± 0.15 % ID/g
same,Kidney,[1]; 192 h after administration,11.9 ± 2.08 % ID/g
same,LNCaP Tumor,[1]; 192 h after administration,35.0 ± 27.3 % ID/g
same,Liver,[1]; 192 h after administration,2.25 ± 0.45 % ID/g
same,Lung,[1]; 192 h after administration,2.81 ± 0.36 % ID/g
same,Muscle,[1]; 192 h after administration,0.33 ± 0.05 % ID/g
same,Pancreas,[1]; 192 h after administration,0.94 ± 0.32 % ID/g
same,Spleen,[1]; 192 h after administration,3.77 ± 0.54 % ID/g
same,Stomach (% ID),[1]; 192 h after administration,0.12 ± 0.01 % ID

# Reference: patent US20240174622A1, “COMPOUND AND RADIOACTIVE LABELING COMPOUND” (NIHON MEDI-PHYSICS CO., LTD., priority 2021, published 2024)
